# In US7098241B2, “Thiophene hydroxamic acid derivatives” (Hoffmann-La Roche Inc., priority 2002, dated 2006):
# Tests used:
# [1] = test system: HT-29 cells (human colon carcinoma cell line); test: MTT anti-proliferation assay on HT-29 cells; type: cell-based; details: Homo sapiens, 120 h, 384 well plates, 5 days, read-out: IC50 HT29 384
# Excerpt: MTT (3-(4,5-dimethylthiazol-2-yl)-2,5-diphenyl tetrazolium bromide) is widely used for the quantitative determination of cytotoxic effects or in vitro chemosensitivity of tumor cells. The assay is based on the cleavage of the yellow tetrazolium salt (MTT) to purple formazan crystals by metabolic active cells. For details, see Rubinstein, L. V., et al., J. Natl. Cancer Inst. 82 (1990) 1113.
# We proceeded as follows: HT-29 cells (human colon carcinoma cell line) were cultivated in RPMI 1640, 2.5% FCS, 2 mM glutamine, 100 u/ml penicillin, 100 ug/ml streptomycin. For the assay the cells were seeded in 384 well plates, 900 cells per well, in the same medium. At the next day, the compounds (dissolved 10 mM in DMSO) were added in various concentrations ranging from 30 uM to 1.5 nM. After 5 days, the MTT assay was done mainly according to the instructions of the manufacturer (Cell proliferation kit I, MTT, from Roche Molecular Biochemicals). In brief: MTT labeling reagent was added to a final concentration of 0.5 mg/ml, added and incubated for 4 hrs at 37° C., 5% CO2. During this incubation time purple formazan crystals are formed. After addition of the solubilization solution (20% SDS in 0.02 M HCl) the plates were incubated overnight at 37° C., 5% CO2. After careful mixing, the plates were measured in Victor 2 (scanning multiwell spectrophotometer, Wallac) at 550 nm.
# A decrease in number of living cells results in a decrease in the total metabolic activity in the sample. The decrease directly correlates to the amount of purple color resulting from the solubilization of the purple formazan crystals. Determination of IC50 was done using XL-fit.
# [2] = test system: HCT116 tumor cells (human colon adenocarcinoma) xenograft; test: Antitumor activity in a HCT116 xenograft model; type: in vivo, NMRI nude male mice; details: 21 dosing days over 29 days
# Description: Determination of Antitumor Activity in a HCT116 Xenograft Model
# The HCT116 cell line (NCI line) is derived from a human colon adenocarcinoma and kept in an in house working cell bank. Cells were cultured in RPMI1640/2 mM L-glutamin medium supplemented with 10% heat inactivated FCS. For inoculation HCT116 tumor cells are removed (trypsin-EDTA, 50 U/mg) from culture flasks and transferred into culture medium (RPMI 1640, 10% heat inactivated FCS), washed and resuspended in sterile PBS to achieve a final cell concentration of 5×10^6/100 μl. Cell suspension was carefully mixed by regular shaking to avoid cell aggregation and filled into a 1.0 ml graded syringe. Tumor cell inoculation was performed under light anesthesia (Ethrane.) in the upper ventral quarter of right flank, i.e. between axilla of forelegs and midline region of NMRI nude male mice. In this site 5×10^6 HCT116 tumor cells were s.c. discharged in a volume of 100 μl PBS. All procedures were carried out under SPF conditions wearing appropriate clothings. After s.c. inoculation of tumor cells, measurable tumors developed in all animals. Mice were staged and randomized on day 10 according to the primary tumor dimensions. 21 days daily oral dosing was carried out using the compound of example 1 and compound 3 of WO 93/07148, WO 95/31977, U.S. Pat. No. 5,369,108 ('108 patent) as test article. 75 male NMRI nude mice were divided into 5 study groups. Each group consisted of 15 male animals. The individual groups were given the test article, formulated as microsuspensions in 7.5% modified gelatin with 0.22% NaCl solution, once daily by oral route over 29 days according to the following treatment scheme: 3 days treatment, 2 days drug holiday, 5 days treatment, 2 days drug holiday, 5 days treatment, 2 days drug holiday, 5 days treatment, 2 days drug holiday, 3 days treatment. The application volume was 10 ml/kg. The oral doses chosen were 50, 100, and 200 mg/kg of the compound of example 1 and 200 mg/kg of compound 3 of the '108 patent.
# recombinant HDAC-1 = target: T1, recombinant HDAC-1 (Homo sapiens, UniProt Q13547); test: HDAC biochemical quench assay; details: recombinant HDAC-1 purified from HEK 293 cells, 1 uM peptide substrate, 90 min at room temperature
# T1 construct: made in house; host or cells: HEK 293 cells
# T1 sequence (Q13547 whole entry, species assumed): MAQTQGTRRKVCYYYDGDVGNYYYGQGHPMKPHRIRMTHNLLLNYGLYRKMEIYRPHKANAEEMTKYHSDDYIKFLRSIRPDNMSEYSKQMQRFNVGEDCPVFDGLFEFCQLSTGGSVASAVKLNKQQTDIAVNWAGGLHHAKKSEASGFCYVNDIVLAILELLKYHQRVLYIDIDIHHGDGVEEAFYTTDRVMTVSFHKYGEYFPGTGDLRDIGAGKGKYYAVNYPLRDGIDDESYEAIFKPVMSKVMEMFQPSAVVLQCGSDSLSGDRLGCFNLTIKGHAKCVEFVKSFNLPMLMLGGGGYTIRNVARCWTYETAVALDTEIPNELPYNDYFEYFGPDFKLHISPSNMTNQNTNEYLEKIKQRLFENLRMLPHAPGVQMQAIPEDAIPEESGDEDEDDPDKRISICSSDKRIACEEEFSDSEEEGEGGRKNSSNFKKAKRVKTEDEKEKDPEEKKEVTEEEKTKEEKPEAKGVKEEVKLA
# Excerpt: The function of histone deacetylase (HDAC) is the deacetylation of lysines in e.g. histone H4. A peptide of 17 amino acids derived from histone H4 was labeled with TAMRA at the C-terminus and QSY-7 at the N-terminus and was used as a substrate (TAMRA-first17 aa of histone H4-QSY7). Following deacetylation by HDAC, the enzyme Lys C is able to cleave the peptide after lysine. […] Inhibition of HDAC by compounds results in low signals because Lys C could not cleave the substrate and the quench effect persists.
# For dose response curves, 10 concentrations were diluted 1:3 starting at 30 uM. 10 ul compound dilution were put into each well of a 384 well plate. 10 ul HDAC were added (recombinant HDAC-1 purified from HEK 293 cells; enzyme activity has to be assessed for each preparation). 10 ul peptide substrate was added (1 uM final concentration, derived from 1 mM stock solution diluted 1:1000 in test buffer). After 90 min incubation at room temperature, the reaction was stopped by addition of 20 ul test buffer including 3 ug/ml Lys C and 0.075% SDS. After overnight incubation the fluorescence signal of TAMRA was measured (Victor 2 from Wallac, absorption 544 nm, emission 590 nm). The O.D. of DMSO-treated control wells is 100%, the % inhibition of compound treated wells is calculated in relation to 100%. Based on 10 concentrations a IC50 curve is generated by using XL.fit3.
# Test buffer used: a mixture of 10 mM Hepes pH8, 10 mM NaCl, 10% Glycerol, 0.005% Triton X100, 0.1 mM EDTA, 0.1 mM TCEP. As plates were used 384 well plates (black, Greiner, 781077).
structure (smiles),measurement,setting,value
"C[C@@H](NC(=O)c1ccc(C(=O)NO)s1)c1ccccc1 [Example 1, (R)-thiophene-2,5-dicarboxylic acid 2-hydroxyamide 5-[(1-phenyl-ethyl)-amide]]",IC50,[1],170 nM
same,tumor weight inhibition,[2]; 50 mg/kg oral once daily,40%
same,tumor weight inhibition,[2]; 100 mg/kg oral once daily,49%
same,tumor weight inhibition,[2]; 200 mg/kg oral once daily,87%
same,IC50,recombinant HDAC-1,3.4 nM
